Laboratory results from patent publication US20210317077A1, “Crystalline Forms of N1-(1-Cyanocycloproply)-N2-((1S)-1-{4'-[(1R-2,2-Difluoro-1-Hydroxyethyl]Biphenyl-4-YL}-2,2,2-Trifluoroethyl)-4-Fluoro-L-Leucinamide” (Intervet Inc., priority 2018, published 2021).

Key:
[1] = competitive slurry in ethanol/water at 25, 30, 35 and 40° C.; enantiotropically related forms
Method: Competitive slurry experiments of Forms A and B in ethanol/water at 25° C., 30° C., 35° C. and 40° C. were used to establish the transition temperature of the enantiotropic forms.

[2] = Method: The Form B crystals were added to the SLS and PVP to form a slurry. […] FIG. 9 depicts complimentary in situ process analytical data from Raman spectroscopy (on solute concentration and solid phase composition) and Focused Beam Reflectance Measurement (FBRM characterizing number and dimension of the dispersed particles).
[3] = Form A: temperature range where Form B is stable; Form B: process solvent above 50° C., few hours, no Form A seeds

Structure (SMILES) | temperature at which the form is the more stable form [1] | relative solubility of the forms (Raman solute signal) ([2]; 80° C., slurry in aqueous SLS and PVP) | form conversion during API process and DP processing timeframes [3] | time for conversion of most Form B crystals to Form A crystals ([2]; 80° C., slurry in aqueous SLS and PVP, after introduction of Form A crystal seeds) | Form A detected before seeding ([2]; Form B slurry in aqueous SLS and PVP raised to 80° C., before Form A seeds)
CC(C)(F)C[C@H](N[C@@H](c1ccc(-c2ccc([C@@H](O)C(F)F)cc2)cc1)C(F)(F)F)C(=O)NC1(C#N)CC1 [Form A] | ≥ 40 °C | lower solubility | does not convert to Form B |  | 
CC(C)(F)C[C@H](N[C@@H](c1ccc(-c2ccc([C@@H](O)C(F)F)cc2)cc1)C(F)(F)F)C(=O)NC1(C#N)CC1 [Form B] | ≤ 30 °C |  | converts to Form A | ≤ 2 h | no Form A detected
